Source: ChEMBL document CHEMBL2434938, “Identification of new inhibitors for low molecular weight protein tyrosine phosphatase isoform B” (Bioorg Med Chem Lett, 2013)

molecular target: Low molecular weight phosphotyrosine protein phosphatase (Homo sapiens) (UniProt P24666); assay: Competitive inhibition of LMW-PTP-B (unknown origin)
Sequence (P24666 whole entry, looked up): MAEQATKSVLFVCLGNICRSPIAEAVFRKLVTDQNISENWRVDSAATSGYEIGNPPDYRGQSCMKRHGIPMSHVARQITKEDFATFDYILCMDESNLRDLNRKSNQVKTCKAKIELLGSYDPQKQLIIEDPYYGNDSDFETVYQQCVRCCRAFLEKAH

SMILES	Kis
Cc1ncc(COP(=O)(O)O)c(C=O)c1O	7.6 µM

molecular target: Low molecular weight phosphotyrosine protein phosphatase (Homo sapiens) (UniProt P24666); assay: Competitive inhibition of human GST-tagged LMW-PTP-B expressed in Escherichia coli JM 109 cells using p-nitrophenyl phosphate as substrate after 15 mins by microplate reader analysis

SMILES	Kis
O=c1cc(-c2ccc(O)cc2)oc2c(O)c(O)c(O)c(O)c12	18.8 µM
O=Cc1c[nH]c2ncccc12	7190 µM
Nc1o[nH]c(=O)c1C1CCCCC1	> 450 µM
O=c1oc2c(cc1O)oc(=O)c1cc(O)c(O)c(O)c12	10.8 µM
Nc1nc2c[nH]c(N)nc-2n1	31.7 µM
c1ccc(CSc2nc3c[nH]cnc-3n2)cc1	> 450 µM
Nc1nc(N)nc([C@@H]2C=CCCC2)n1	> 450 µM
Nc1nc(SCc2ccccn2)c2ncn([C@@H]3O[C@H](CO)[C@@H](O)[C@H]3O)c2n1	> 450 µM
O=C(O)c1nn(-c2ccccc2-c2nnc(O)nc2O)c(=O)[nH]c1=O	1650 µM
O=C(O)c1ccc(N2CCCCC2)cc1O	> 450 µM
O=C(O)CCNC1CCCCC1	3300 µM
O=C(O)/C=C/C(=O)N1Cc2cc3ccccc3nc2C1	493 µM
O=c1c(O)cccc2cc(O)c(O)c(O)c12	10.4 µM
COc1ccc(C(=O)O)nc1C	2780 µM
O=C(O)c1ccc2c(c1Nc1ccccc1)C(=O)c1ccccc1C2=O	161 µM
CC1=C[C@H](O)[C@@H](O)[C@]2(C)[C@H]3[C@@]4(O)OC[C@]35[C@H]([C@@H](C)[C@H]4O)[C@@H](O)C(=O)O[C@@H]5C[C@@H]12	> 450 µM
Cc1ccc([N+](=O)[O-])cc1NC(=O)Nc1ccc(S(N)(=O)=O)cc1	2230 µM
Cc1c2cc(O)c(=O)cc-2oc2cc(O)c(O)cc12	13.5 µM
OCC(O)C1OCOC(C(O)CO)C1O (stereo not given)	> 450 µM
Oc1cc(-c2nn[nH]n2)nc(O)n1	> 450 µM
Cc1cc(C)c2c(SC(C)C)nc(N)nc2n1	925 µM

SMILES	Kis
O[C@@H]1[C@H](OCc2ccccc2)OC[C@@H](O)[C@H]1O	> 450 µM
O=C(O)CCCC[C@@H]1SC[C@@H]2NC(=O)N[C@@H]21	2330 µM
CCCCSc1cc(C)nc(N)n1	> 450 µM
CC(C)c1nc2c(=O)n(C)c(=O)n(C)c2[nH]1	> 450 µM
N=C(N)n1c(N)nc2ccccc2c1=O	1180 µM
Cc1ncc(COP(=O)(O)O)c(C=O)c1O	3.73 µM
Cc1cccc(N=C(S)Nc2cccc(C)n2)n1	> 450 µM
Nc1nc(N)c(/N=N/c2ccc(S(N)(=O)=O)cc2)c(O)n1	128 µM
COc1ccc2nc3cc(Cl)ccc3c(C#N)c2c1	> 450 µM
O=C(/C=C/c1ccc(O)c(O)c1)OC1[C@@H](O)CC(OC(=O)/C=C/c2ccc(O)c(O)c2)(C(=O)O)C[C@@H]1O (stereo not given in full)	635 µM
COC(=O)[C@@H]1[C@H](O)[C@H](C)[C@H](O)[C@H](C)/C=C\C=C(/C)C(=O)Nc2c(C)c(OC(C)=O)c3c(c2O)C(=O)C(C)=C2OCOC(=C23)/C(C)=C/[C@@](C)(O)[C@H](O)[C@@H](C)[C@H]1O	93.9 µM
CC[C@@]1(O)C(=O)OCc2c1cc1n(c2=O)Cc2cc3c(NC(=O)CN)cccc3nc2-1	538 µM
O=C(O)Cc1ccc(/N=N/c2c(O)c(C(=O)O)cc3ccccc23)cc1	33.5 µM
C[C@@H]1O[C@@H](Oc2c(-c3cc(O)c(O)c(O)c3)oc3cc(O)cc(O)c3c2=O)[C@H](O)[C@H](O)[C@H]1O	> 126 µM
Nc1nc(N)c(/N=N/c2ccc(SCC(=O)O)cc2)c(O)n1	730 µM
O=C(O)C1OCC2(CO1)COC(C(=O)O)OC2 (stereo not given)	> 450 µM
CC(C)(C)c1ccc(OCC(=O)O)cc1	> 450 µM
Cn1c(=O)c2nc(CNc3ccc(C(=O)O)cc3)[nH]c2n(C)c1=O	1560 µM
Cn1c(=O)c2nc(COc3ccc(C(C)(C)C)cc3)[nH]c2n(C)c1=O	> 450 µM
Cc1cccc(C)c1NC(=O)Nc1ccc(S(N)(=O)=O)cc1	1760 µM

molecular target: Low molecular weight phosphotyrosine protein phosphatase (Homo sapiens) (UniProt P24666); assay: Uncompetitive inhibition of human GST-tagged LMW-PTP-B expressed in Escherichia coli JM 109 cells using p-nitrophenyl phosphate as substrate after 15 mins by microplate reader analysis

SMILES	Kii
Cc1c2cc(O)c(=O)cc-2oc2cc(O)c(O)cc12	31.7 µM
O=C1c2ccccc2C(=O)c2[nH]cnc21	7.97 µM
CCO[C@H]1CCc2c(C)nc(N)nc2S1	122 µM
